In patent US20180354962A1, “[{[2,3-Dihydro-1H-inden-1-yl]amino}-2H,3H-furo[3,2-b]pyridin-3-yl]acetic acids, pharmaceutical compositions and uses thereof” (Boehringer Ingelheim International GmbH, priority 2015, published 2018):
≈ marks a conversion by molar mass, not a printed value.

Experiments:
[1] = molecular target: T1, cytochrome P450 2C8-isoenzyme (Homo sapiens, UniProt P10632); experiment: Inhibition of CYP-2C8 (amodiaquine deethylation, human liver microsomes); type: in vitro ADME; conditions: human liver microsomes 0.05 mg/mL, amodiaquine 1 μM, 37° C.
T1 construct: is assayed at 37° C. with human liver microsomes; from tissue; host or cells: human liver microsomes
T1 sequence (P10632 1-490): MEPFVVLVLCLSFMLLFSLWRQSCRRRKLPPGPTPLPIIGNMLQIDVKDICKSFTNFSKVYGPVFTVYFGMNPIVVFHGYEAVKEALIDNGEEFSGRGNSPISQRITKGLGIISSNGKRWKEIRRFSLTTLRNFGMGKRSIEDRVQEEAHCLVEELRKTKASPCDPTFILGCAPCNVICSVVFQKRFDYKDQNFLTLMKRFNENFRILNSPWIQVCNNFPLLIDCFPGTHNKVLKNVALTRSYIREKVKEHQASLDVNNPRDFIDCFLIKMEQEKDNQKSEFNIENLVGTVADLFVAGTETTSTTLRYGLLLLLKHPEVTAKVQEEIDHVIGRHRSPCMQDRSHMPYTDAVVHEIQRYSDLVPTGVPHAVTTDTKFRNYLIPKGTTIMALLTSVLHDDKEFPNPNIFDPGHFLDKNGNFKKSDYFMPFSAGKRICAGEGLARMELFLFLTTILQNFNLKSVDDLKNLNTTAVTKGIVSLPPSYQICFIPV
Experimental: All assays are carried out on a robotic system in 96 well plates. The final incubation volume contains TRIS buffer (0.1 M), MgCl2 (5 mM), human liver microsomes (0.05 mg/mL), amodiaquine (1 μM) and the test compound at five different concentrations or no compound (high control) in duplicate (e.g. highest concentration 10-50 μM with subsequent serial 1:4 dilutions). Following a short preincubation period, reactions are started with the cofactor (NADPH, 1 mM) and stopped by cooling the incubation down to 8° C. and subsequently by addition of one volume of acetonitrile. An internal standard solution—the stable isotope d5-desethylamodiaquine—is added after quenching of incubations. Peak area analyte (=metabolite formed) and internal standard is determined by LC-MS/MS. The resulting peak area ratio analyte to internal standard in these incubations is compared to a control activity containing no test compound. Within each of the assay runs, the IC50 of a positive control inhibitor (Montelukast) is determined. Experimental IC50 values are calculated by least square regression according to the following equation: % control activity=(100% control activity/(1+(I/IC50)S))−B with I=inhibitor concentration; S=slope factor; B=background activity (lower plateau of the inhibition curve) If the inhibition of the reaction is already >50% at the lowest concentration of the test compound, the IC50 is assigned “<lowest concentration tested” (usually <0.4 μM). If the inhibition of the reaction is still <50% at the highest concentration of the test compound, the IC50 is assigned “>highest concentration tested” (usually >50 μM).

[2] = Aqueous solubility from DMSO stock, LC-UV; type: physicochemical; conditions: aqueous buffer, kinetic from dmso stock; buffer pH 2.2, 24 h shaking, 2.5% DMSO
Experimental: The aqueous solubility of the compounds of the invention is determined by comparing the amount dissolved in buffer to the amount in an acetonitrile/water (1/1) solution. Starting from a 10 mM DMSO stock solution aliquots are diluted with acetonitrile/water (1/1) or buffer, respectively. After 24 h of shaking, the solutions are filtrated and analyzed by LC-UV. The amount dissolved in buffer is compared to the amount in the acetonitrile solution. Solubility is usually being measured from 0.001 to 0.125 mg/mL at a DMSO concentration of 2.5%. If more than 90% of the compound is dissolved in buffer, the value is marked with “>”.

human GPR40 receptor = human GPR40 receptor (Homo sapiens, UniProt O14842); experiment: IP1 accumulation measurements using the IPOne assay system; type: cell-based; conditions: 1321N1 cells stably expressing human GPR40; 1 h stimulation at 37° C.
Experimental: IP1 accumulation measurements using the IPOne assay system—1321N1 cells stably expressing human GPR40 receptor (Euroscreen, Belgium) are seeded 24 h before the assay in white 384-well plates in culture medium containing 10% FCS, 1% Na-Pyruvate and 400 μg/mL G418. IP1 is assayed according to the manufacturer's description (Cisbio Bioassays, France). In brief, the assay is started by substitution of the culture medium by stimulation buffer (Hepes 10 mM, CaCl2 1 mM, MgCl2 0.5 mM, KCl 4.2 mM, NaCl 146 mM, glucose 5.5 mM and LiCl 50 mM, pH 7.4). Cells are stimulated for 1 h at 37° C., 5% CO2 by addition of the compounds that are diluted in stimulation buffer containing LiCl. Assays are stopped by adding HTRF-conjugates (IP1-d2 and Anti-IP1 cryptate Tb) and lysis buffer, provided by the manufacturer. After an incubation time of 1 h at room temperature plates are measured using an EnVision™, Perkin Elmer. The obtained fluorescence ratios at 665/615 […] are then used to calculate the pEC50 values using Assay Explorer 3.3 Software (Accelrys, Inc.) by interpolation using an IP1 reference curve and subsequent sigmoidal curve fitting allowing for a variable hill slope.

CYP2C9 = molecular target: T2, CYP2C9 (Homo sapiens, UniProt P11712); experiment: Inhibition of CYP-2C9 (diclofenac hydroxylation, human liver microsomes); type: in vitro ADME; conditions: probe diclofenac (10 μM), hydroxylation, human liver microsomes 0.1 mg/mL, 37° C.
T2 construct: from tissue; host or cells: human liver microsomes
Experimental: All assays are carried out on a robotic system in 96 well plates. The final incubation volume contains TRIS buffer (0.1 M), MgCl2 (5 mM), human liver microsomes (0.1 mg/mL), diclofenac (10 μM) and the test compound at five different concentrations or no compound (high control) in duplicate (e.g. highest concentration 10-50 μM with subsequent serial 1:4 dilutions). Following a short preincubation period, reactions are started with the cofactor (NADPH, 1 mM) and stopped by cooling the incubation down to 8° C. and subsequently by addition of one volume of acetonitrile. An internal standard solution—the stable isotope 13C6-hydroxydiclofenac—is added after quenching of incubations. Peak area analyte (=metabolite formed) and internal standard is determined by LC-MS/MS. The resulting peak area ratio analyte to internal standard in these incubations is compared to a control activity containing no test compound. Within each of the assay runs, the IC50 of a positive control inhibitor (sulfaphenazole) is determined. Experimental IC50 values are calculated by least square regression according to the following equation: % control activity=(100% control activity/(1+(I/IC50)S)))−B with I=inhibitor concentration S=slope factor B=background activity (lower plateau of the inhibition curve) If the inhibition of the reaction is already >50% at the lowest concentration of the test compound, the IC50 is assigned “<lowest concentration tested” (usually <0.4 μM). If the inhibition of the reaction is still <50% at the highest concentration of the test compound, the IC50 is assigned “>highest concentration tested” (usually >50 μM).

human GPR40 receptor, sequence (O14842 whole entry): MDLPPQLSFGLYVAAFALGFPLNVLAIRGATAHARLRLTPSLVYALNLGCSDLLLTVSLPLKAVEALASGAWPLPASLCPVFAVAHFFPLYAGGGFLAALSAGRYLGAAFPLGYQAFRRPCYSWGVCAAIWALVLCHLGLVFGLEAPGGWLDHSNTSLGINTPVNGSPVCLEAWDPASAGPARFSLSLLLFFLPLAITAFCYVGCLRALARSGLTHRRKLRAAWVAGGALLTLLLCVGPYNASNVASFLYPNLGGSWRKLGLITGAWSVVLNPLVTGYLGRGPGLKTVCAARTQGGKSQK
T2 sequence (P11712 whole entry): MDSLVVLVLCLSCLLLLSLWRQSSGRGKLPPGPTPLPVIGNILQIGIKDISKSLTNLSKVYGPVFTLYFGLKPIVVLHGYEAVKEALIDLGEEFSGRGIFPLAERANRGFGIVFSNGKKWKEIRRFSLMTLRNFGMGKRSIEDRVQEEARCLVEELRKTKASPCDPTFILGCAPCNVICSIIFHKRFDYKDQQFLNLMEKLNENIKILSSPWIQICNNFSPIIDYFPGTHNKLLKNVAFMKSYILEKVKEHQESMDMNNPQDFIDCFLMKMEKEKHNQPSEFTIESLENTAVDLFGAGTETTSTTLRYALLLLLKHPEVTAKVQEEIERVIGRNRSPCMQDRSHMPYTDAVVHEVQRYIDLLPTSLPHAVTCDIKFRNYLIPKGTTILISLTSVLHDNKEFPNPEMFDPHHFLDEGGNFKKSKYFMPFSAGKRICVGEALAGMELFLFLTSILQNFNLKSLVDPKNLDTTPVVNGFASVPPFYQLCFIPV

In the case of `CC(C)c1ccccc1-c1cccc2c1CC[C@H]2Nc1cnc2c(c1)OCC2CC(=O)O` (stereo partly drawn) [Example 129, 2-(6-{[(1R)-4-[2-(Propan-2-yl)phenyl]-2,3-dihydro-1H-inden-1-yl]amino}-2H,3H-furo[3,2-b]pyridin-3-yl)acetic acid], the IC50 [1] is reported as 12 µM, the solubility at 24 h [2] is reported as 4 µg/mL (≈ 9.33 µM) and the EC50 (human GPR40 receptor) is reported as 0.184 µM. For the same compound, the IC50 (CYP2C9) was 50 µM.
